This is an account of results in patent publication US9434701B2, “Aminoquinoxaline derivatives for treatment of neurodegenerative diseases” (CENTRE NATIONAL DE LA RECHERCHE SCIENTIFIQUE (CNRS), priority 2011, dated 2016).

Series [1] has as its system fetal dopaminergic neurons (TH+) in culture. Description: dopaminergic neuron spontaneous degeneration model, second protocol (Mourlevat et al.), TH+ neuron count after 10 days. The note with it: Rattus norvegicus, 240 h, effect at 100 μM, 10 days of culture, read-out: TH+ neurons in % of control ± Std. Err. The series is classed as cell-based. The method, then: This second protocol is described in the article by Mourlevat, P. P. Michel et al. Molecular Pharmacology 2003, 64:578-586 (“Prevention of Dopaminergic Neuronal Death by Cyclic AMP in Mixed Neuronal/Glial Mesencephalic Cultures Requires the Repression of Presumptive Astrocytes”). […] Compounds according to the invention were evaluated at 50 μM except compound 4bc which was assessed at 100 μM.

Series [2] in a line: passage of the blood-brain barrier, per os study: brain extract by HPLC-MS/MS. The series is classed as in vivo, Rj Orl: SWISS mice. The note with it: per os 150 mg/kg twice daily 4 days + last treatment day 5; euthanized 4 h to 6 h 40 after last treatment. The protocol: Male Rj Orl: SWISS, mice, approximately 5 weeks old and weighing between 20 and 24 g at arrival (R Janvier Breeding Center, France) were kept in the animal room at constant temperature (22±1° C.) and controlled humidity (55±20%), with a 12-hour light/dark cycle (8:00 a.m.-8:00 p.m.). During the acclimation and study period, the mice had free access to food and water. All the experiments were conducted in compliance with the conditions of decree 2001-464 of May 29, 2001 relative to animal experimentation.
The solution of compound 4bc at the concentration of 15.0 g/L to be administered was prepared in the following carrier: 0.5% Tween 80+99.5% carboxymethyl cellulose at 1%, in 0.9% NaCl in water.
Three groups were created: • mice who received the carrier orally at 10 mL/kg (Group V, n=4), • mice treated with compound 4bc orally at 150 mg/kg and at 10 mL/kg (Group T, n=6), • control mice who received no treatment (n=2). All the mice were treated or received the carrier twice daily for 4 days. On the 5th day, a last treatment was administered and the animals were euthanized between […]. after this last treatment according to the following plan: […]
Detection and quantification, based on peak area, were done by HPLC-MS/MS in MRM mode.

In the case of `Cc1nc2ccc(N)cc2nc1-c1ccccc1` [Compound 4bc], in series [1], the activity at 100 µM stood at 139 ± 11%. Further, in series [2], the “detection in brain samples” value was “undetectable”.
